These results are taken from patent US20250197368A1 (priority 2020, published 2025).

The test system of one test is human α2β3γ2 GABAARs. The experiment in a line: In vitro electrophysiological recording assay (automated patch-clamp), α2-GABAAR relative efficacy. Type of test: cell-based. The settings on record: % efficacy normalised to diazepam; GABA EC10-20; concentration generally >= 100 times Ki. The procedure:
The efficacy of modulators was evaluated using the automated patch-clamp platforms QPatch16 (Sophion, Copenhagen, Denmark) or SyncroPatch 384PE (Nanion, Germany).
For QPatch electrophysiology testing L(tk^−) cells stably expressing human α1β3γ2, α2β3γ2, α3β3γ2, α5β3γ2 GABAARs were used. HEK293 cells stably expressing human α1β3γ2L, α2β3γ2L, α3β3γ2L and α5β3γ2L GABAARs were used for the SyncroPatch 384PE experiments.
All experiments were carried out at room temperature (20-22° C.) using a standard whole cell procedure and physiological solutions. Gigaseals were formed upon execution of a combined suction/voltage protocol with subsequent increased suction leading to the whole-cell configuration.
The currents recorded were acquired at either 1 KHz or 2 KHz and filtered using a Bessel filter. Whole-cell currents were measured at a holding potential of-65 mV (QPatch) or −80 mV (SyncroPatch).
For QPatch experiments, the extracellular solution contained of: 145 mM NaCl, 4 mM KCl, 1 mM MgCl2, 2 mM CaCl2), 10 mM HEPES, 10 mM D-glucose (pH 7.4), and the intracellular solution consisted of: 96 mM KCl, 28 mM CsCl, 25 mM KOH, 4.3 mM CaCl2), 1.4 mM MgCl2, 10 mM EGTA, 10 mM HEPES, 3 mM MgATP (pH 7.2). The osmolarities of the extracellular and intracellular solutions were 305 and 295 mOsm respectively.
For SyncroPatch experiments, the extracellular recording solution contained: 140 mM NaCl, 4 mM KCl, 2 mM CaCl2), 1 mM MgCl2, 10 mM HEPES, 5 mM glucose (pH 7.4 with NaOH and osmolarity of c. 300-310 mOsm). The intracellular recording solution consisted of: 90 mM KCl, 50 mM KF, 1.5 mM MgCl2, 11.1 mM EGTA and 10 mM HEPES (pH 7.2 with KOH and osmolarity of c. 300 mOsm). 2 mM of NaATP was added to the intracellular solution on the day of testing.
The effects of modulators were evaluated in the presence of a submaximal GABA concentration, giving typically less than 30% activation of the response elicited by a saturating GABA concentration. To check and ensure baseline current stability before compound addition, two to five consecutive applications of GABA EC10-20 separated by wash steps were performed before compound addition. The test compound was applied 1 min at least prior to co-application with GABA EC10-20. Following a further wash step, a saturating concentration of GABA was applied at the end of each recording, allowing the accurate evaluation for each cell of the percentage baseline activation elicited by the submaximal GABA applied.
The compounds were first dissolved in DMSO as a 10 mM stock and then further diluted to the testing concentrations so that the final DMSO concentration in the extracellular recording solution was 0.1% (QPatch) or 0.2% (SyncroPatch).
The % efficacy of modulators was determined from the GABA elicited currents recorded in the presence and absence of the test compound, using the formula:
[((compound peak current−leak)−(GABA peak current-leak))/(GABA peak current−leak)]*100,
where ‘leak’ is the leak baseline current at the holding potential, ‘compound peak current’ is the current elicited by co-application of compound and GABA, and ‘GABA peak current’ is the current elicited by GABA alone at the last GABA application before compound addition. The results were presented as ‘relative efficacy’ for each compound generally at a concentration equal or higher than 100 times their determined Ki. The relative efficacy of a compound was calculated by normalising its % efficacy to the corresponding % efficacy of diazepam that was separately determined.

The target in test [1] is human α2β3γ2 GABAARs (benzodiazepine site) (Homo sapiens (Human), UniProt P18507+P47869). Kind of test: In vitro radioligand binding assay ([3H]Ro15-1788 displacement), α2-GABAAR Ki. The method, then: The affinity (Ki) of compounds for the benzodiazepine site of human recombinant GABAARs was measured by their ability to inhibit the binding of the selective benzodiazepine antagonist [^3H]Ro15-1788 ([^3H] flumazenil).
Mouse L(tk^−) cells stably expressing human α1β3γ2, α2β3γ2, α3β3γ2, α5β3γ2 GABAARs were generated by transfection of the individual subunits in the dexamethasone-inducible expression vector pMSGneo in mouse L(tk^−) cells (Hadingham et al., 1993, Mol. Pharmacol. 43:970-975 and 1993, Mol. Pharmacol. 44:1211-1218).
L(tk^−) cells stably expressing human α1β3γ2, α2β3γ2, α3β3γ2, α5β3γ2 GABAARs were maintained in DMEM F12 medium supplemented with 10% Foetal Bovine Serum, 1% Penicillin/Streptomycin and 1 mg/mL Geneticin G418 in an incubator at 37° C. with a humidified atmosphere with 5% CO2. Dexamethasone was added to the culture medium to induce GABAAR expression.
L(tk−) cells were harvested and membranes were prepared for each receptor combination in either TE buffer (10 mM Tris·CI/0.1 mM EDTA, pH 7.5) or phosphate buffer (K2PO4 10 mM, pH 7.0) (Hadingham et al. (1992) Proc. Natl. Acad. Sci. USA; 89 (14): 6378-82). Protein concentration, receptor expression and the Kd of [^3H]Ro15-1788 were determined before Ki value of the compounds were evaluated. For Kd evaluation, saturation binding curves were obtained by incubating membrane with various concentrations of [^3H]Ro15-1788 (82.5 Ci/mM), with nonspecific binding measured in the presence of 1-3 μM TP003.
For Ki evaluation, cell membranes were incubated with 4 nM [^3H]Ro15-1788 along with a range of concentrations of test compound. Nonspecific binding was determined using 1-3 μM TP003. All incubations were performed for 1 hour at 4° C. in assay buffer. The total assay volume was 0.5 mL, containing 40 μg/well α1β3γ2, 30 μg/well α2β3γ2, 40 μg/well α3β3γ2 and 30 μg/well for α5β3γ2 of membrane protein. Incubations were terminated by filtration and washing with ice cold Tris-HCl buffer (50 mM, pH=7.4) over Whatman GF/B filters and the radioactivity of the filters was measured using liquid scintillation counting.
The % inhibition of [^3H]Ro15-1788 binding was plotted as a function of compound concentration and the IC50 calculated. From the IC50, the affinity (Ki) was calculated using the method of Cheng and Prusoff using the Kd values obtained for [^3H]Ro15-1788.

Chain of human α2β3γ2 GABAARs (benzodiazepine site) (P47869 29-451): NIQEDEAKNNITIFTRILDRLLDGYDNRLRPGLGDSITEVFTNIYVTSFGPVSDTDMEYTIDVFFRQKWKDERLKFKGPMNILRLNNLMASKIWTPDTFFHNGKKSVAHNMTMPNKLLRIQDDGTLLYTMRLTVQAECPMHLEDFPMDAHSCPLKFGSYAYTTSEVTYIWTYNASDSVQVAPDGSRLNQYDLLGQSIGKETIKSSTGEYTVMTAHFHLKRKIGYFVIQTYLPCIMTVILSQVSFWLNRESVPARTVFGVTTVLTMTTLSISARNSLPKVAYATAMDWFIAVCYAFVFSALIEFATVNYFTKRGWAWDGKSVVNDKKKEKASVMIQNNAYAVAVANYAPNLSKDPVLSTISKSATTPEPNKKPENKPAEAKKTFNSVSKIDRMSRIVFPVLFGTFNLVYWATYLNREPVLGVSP
Chain of human α2β3γ2 GABAARs (benzodiazepine site) (P28472 26-473 partner): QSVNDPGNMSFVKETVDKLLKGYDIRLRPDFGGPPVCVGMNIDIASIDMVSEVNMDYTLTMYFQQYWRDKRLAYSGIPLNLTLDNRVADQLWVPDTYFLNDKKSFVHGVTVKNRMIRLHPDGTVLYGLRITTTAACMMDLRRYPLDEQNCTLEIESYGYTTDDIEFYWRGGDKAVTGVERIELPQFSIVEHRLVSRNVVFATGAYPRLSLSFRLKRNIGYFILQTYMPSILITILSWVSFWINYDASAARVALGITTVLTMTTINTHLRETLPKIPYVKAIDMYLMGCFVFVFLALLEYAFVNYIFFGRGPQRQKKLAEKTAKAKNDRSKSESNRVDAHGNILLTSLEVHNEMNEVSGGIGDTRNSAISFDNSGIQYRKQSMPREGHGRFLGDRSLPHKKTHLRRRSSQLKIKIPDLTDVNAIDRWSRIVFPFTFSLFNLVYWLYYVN
Chain of human α2β3γ2 GABAARs (benzodiazepine site) (P18507 40-475): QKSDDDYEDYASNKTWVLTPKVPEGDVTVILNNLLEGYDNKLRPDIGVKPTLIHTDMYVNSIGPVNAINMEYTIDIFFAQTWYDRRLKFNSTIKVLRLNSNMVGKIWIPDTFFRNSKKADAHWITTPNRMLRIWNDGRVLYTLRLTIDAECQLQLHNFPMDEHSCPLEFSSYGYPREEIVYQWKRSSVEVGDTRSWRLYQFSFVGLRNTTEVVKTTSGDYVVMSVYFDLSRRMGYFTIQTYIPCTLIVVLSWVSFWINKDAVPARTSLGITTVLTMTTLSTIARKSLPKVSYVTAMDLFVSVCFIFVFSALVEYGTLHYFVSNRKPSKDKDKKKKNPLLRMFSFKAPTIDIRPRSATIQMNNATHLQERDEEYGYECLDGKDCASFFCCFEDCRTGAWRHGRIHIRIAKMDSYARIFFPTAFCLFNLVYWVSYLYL

Take `CCCNC(=O)c1c(N)c2cccc(-c3cnccc3F)c2[nH]c1=O` [Example 16, 4-Amino-8-(4-fluoropyridin-3-yl)-2-oxo-N-propyl-1,2-dihydroquinoline-3-carboxamide]: the “α2-GABAAR Relative Efficacy (vs. Diazepam)” value (“α2-GABAAR Relative Efficacy” for short) in the test on human α2β3γ2 GABAARs turned out to be 0.34. The Ki in test [1] turned out to be 24.1 nM.
In the case of `CCCNC(=O)c1c(N)c2cccc(-c3cc(COc4ccc(C)nc4)ccc3F)c2[nH]c1=O` [Example 112, 4-Amino-8-[2-fluoro-5-[(6-methyl-3-pyridyl)oxymethyl]phenyl]-2-oxo-N-propyl-1H-quinoline-3-carboxamide], the “α2-GABAAR Relative Efficacy” value in the test on human α2β3γ2 GABAARs is 0.11. Besides, the Ki in test [1] came out at 0.57 nM.
With `COc1ccncc1-c1cccc2c(N)c(C(=O)NCCC(F)F)c(=O)[nH]c12` [Example 68, 4-Amino-N-(3,3-difluoropropyl)-8-(4-methoxy-3-pyridyl)-2-oxo-1H-quinoline-3-carboxamide], in the test on human α2β3γ2 GABAARs, the “α2-GABAAR Relative Efficacy” value was 0.54. In addition, in test [1], the Ki worked out at 4.88 nM.
`COc1ccncc1-c1cccc2c(N)c(C(=O)NCC(C)C)c(=O)n(C)c12` [Example 79, 4-Amino-N-isobutyl-8-(4-methoxy-3-pyridyl)-1-methyl-2-oxo-quinoline-3-carboxamide]: in the test on human α2β3γ2 GABAARs, the “α2-GABAAR Relative Efficacy” value worked out at 0.81. Moreover, the Ki in test [1] worked out at 2.51 nM.
For the molecule `CCCNC(=O)c1c(N)c2cccc(-c3cncc(OCc4ccc(F)cn4)c3)c2[nH]c1=O` [Example 29, 4-Amino-8-(5-((5-fluoropyridin-2-yl)methoxy)pyridin-3-yl)-2-oxo-N-propyl-1,2-dihydroquinoline-3-carboxamide], the “α2-GABAAR Relative Efficacy” value in the test with human α2β3γ2 GABAARs is reported as 0.22. In addition, the Ki in test [1] was determined as 6.66 nM.
Take `CCCNC(=O)c1c(N)c2cccc(-c3nc(OCCOC)ncc3F)c2[nH]c1=O` [Example 43, 4-Amino-8-(5-fluoro-2-(2-methoxyethoxy)pyrimidin-4-yl)-2-oxo-N-propyl-1,2-dihydroquinoline-3-carboxamide]: in the test with human α2β3γ2 GABAARs, the “α2-GABAAR Relative Efficacy” value was determined as 0.14. The inhibitory constant (Ki) in test [1] came to 1.47 nM.
Consider `CCCNC(=O)c1c(N)c2cccc(-c3cc(OCc4ccc5[nH]cnc5c4)ccc3F)c2[nH]c1=O` [Example 133, 8-(5-((1H-Benzo[d]imidazol-5-yl)methoxy)-2-fluorophenyl)-4-amino-2-oxo-N-propyl-1,2-dihydroquinoline-3-carboxamide], for which the “α2-GABAAR Relative Efficacy” value in the test with human α2β3γ2 GABAARs stood at 0.23. In test [1], the Ki turned out to be 1.29 nM.
Regarding `CCCNC(=O)c1c(N)c2cccc(-c3cncc(OC)n3)c2[nH]c1=O` [Example 47, 4-Amino-8-(6-methoxypyrazin-2-yl)-2-oxo-N-propyl-1,2-dihydroquinoline-3-carboxamide], the “α2-GABAAR Relative Efficacy” value in the test with human α2β3γ2 GABAARs was 0.08. Besides, the Ki in test [1] turned out to be 0.23 nM.
The matching figures for `CCCNC(=O)c1c(N)c2cccc(-c3cncc(OC4CC4)c3)c2[nH]c1=O` [Example 28, 4-Amino-8-(5-cyclopropoxypyridin-3-yl)-2-oxo-N-propyl-1,2-dihydroquinoline-3-carboxamide]: 0.2 and 9.07 nM.
With `CCCNC(=O)c1c(N)c2cccc(-c3nc(N)ncc3F)c2[nH]c1=O` [Example 41, 4-Amino-8-(2-amino-5-fluoropyrimidin-4-yl)-2-oxo-N-propyl-1,2-dihydroquinoline-3-carboxamide], the “α2-GABAAR Relative Efficacy” value in the test with human α2β3γ2 GABAARs is listed as 0.13. In addition, the inhibition constant (Ki) in test [1] turned out to be 0.4 nM.
Consider `CCCNC(=O)c1c(N)c2cccc(-c3cc(OCC)ncc3F)c2[nH]c1=O` [Example 35, 4-Amino-8-(2-ethoxy-5-fluoropyridin-4-yl)-2-oxo-N-propyl-1,2-dihydroquinoline-3-carboxamide], for which, in the test on human α2β3γ2 GABAARs, the “α2-GABAAR Relative Efficacy” value stood at 0.52. Further, in test [1], the Ki was determined as 2.45 nM.
In the same order, the values of `CCCNC(=O)c1c(N)c2cccc(-c3ccc(CO)nc3)c2[nH]c1=O` [Example 30, 4-Amino-8-[6-(hydroxymethyl)-3-pyridyl]-2-oxo-N-propyl-1H-quinoline-3-carboxamide] are 0.43 and 4.76 nM.
Regarding `CCCNC(=O)c1c(N)c2cccc(-c3cc(C)ncc3F)c2[nH]c1=O` [Example 33, 4-Amino-8-(5-fluoro-2-methyl-4-pyridyl)-2-oxo-N-propyl-1H-quinoline-3-carboxamide], the “α2-GABAAR Relative Efficacy” value with human α2β3γ2 GABAARs was 0.39. For the same molecule, the Ki in test [1] came to 0.67 nM.
Turning to `CCCNC(=O)c1c(N)c2cccc(-c3cnccc3OCC)c2[nH]c1=O` [Example 19, 4-Amino-8-(4-ethoxypyridin-3-yl)-2-oxo-N-propyl-1,2-dihydroquinoline-3-carboxamide], in the test on human α2β3γ2 GABAARs, the “α2-GABAAR Relative Efficacy” value is listed as 0.23. Also, the Ki in test [1] is 21.5 nM.
Take `CCCNC(=O)c1c(N)c2cccc(-c3nc(OCC)ccc3F)c2[nH]c1=O` [Example 9, 4-Amino-8-(6-ethoxy-3-fluoropyridin-2-yl)-2-oxo-N-propyl-1,2-dihydroquinoline-3-carboxamide]: the “α2-GABAAR Relative Efficacy” value in the test on human α2β3γ2 GABAARs is given as 0.23. The Ki in test [1] was 0.25 nM.
Turning to `CCCNC(=O)c1c(N)c2cccc(-c3cc(OCc4ccc(OC)cn4)ccc3F)c2[nH]c1=O` [Example 96, 4-Amino-8-[2-fluoro-5-[(5-methoxy-2-pyridyl)methoxy]phenyl]-2-oxo-N-propyl-1H-quinoline-3-carboxamide], the “α2-GABAAR Relative Efficacy” value with human α2β3γ2 GABAARs is on record as 0.24. Also, in test [1], the Ki turned out to be 0.92 nM.
In the case of `CCCNC(=O)c1c(N)c2cccc(-c3cccnc3OC)c2n(C)c1=O` [Example 76, 4-Amino-8-(2-methoxy-3-pyridyl)-1-methyl-2-oxo-N-propyl-quinoline-3-carboxamide], the “α2-GABAAR Relative Efficacy” value in the test with human α2β3γ2 GABAARs is given as 0.42. Also, the Ki in test [1] was found to be 6.23 nM.
Regarding `CCCNC(=O)c1c(N)c2cccc(-c3nc(C)ncc3C#N)c2[nH]c1=O` [Example 39, 4-Amino-8-(5-cyano-2-methyl-pyrimidin-4-yl)-2-oxo-N-propyl-1H-quinoline-3-carboxamide], in the test on human α2β3γ2 GABAARs, the “α2-GABAAR Relative Efficacy” value is −0.06. In test [1], the Ki amounted to 9.31 nM.
